Measurements from patent US8586505B2 (SDS Biotech K. K., priority 2009, dated 2013).

Experiments:
Type in all cases: in vivo
[1] = test system: Phytophthora infestans; assay: whole plant or invertebrate; conditions: in Solanum lycopersicum, 96 h, read-out: Determination of control effect (preventive value)
[2] = test system: Pseudoperonospora cubensis; assay: Test of examining control effect on Pseudoperonospora cubensis (potted cucumber plants); conditions: 96 h, 10% wettable powder adjusted to 125 ppm, 15 ml/pot sprayed on potted cucumber plants one day before spray inoculation, assessed after 1 day wet chamber and 3 days greenhouse, read-out: Determination of control effect (preventive value) on Pseudoperonospora cubensis
In short: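 Preventive treatment: 125 ppm sample agent solution (from 10% wettable powder) sprayed at 15 ml/pot on 2.5-leaf Sagamihanjiro cucumbers, then P. cubensis inoculated next day at 1.0×10^4 cells/ml. Incubation was 1 day wet at 21° C plus 3 days greenhouse. Lesion area rate compared with untreated gives preventive value (≥60% high).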

[3] = test system: Sphaerotheca fuliginea; assay: Test of examining control effect on Sphaerotheca fuliginea (potted cucumber plants); conditions: Podosphaera fuliginea, 336 h; 10% wettable powder adjusted to 125 ppm, 15 ml/pot sprayed on potted cucumber plants one day before spray inoculation; assessed after 14 days in greenhouse; read-out: Determination of control effect (preventive value) on Sphaerotheca fuliginea
In short: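 Control effect rated high at preventive value 60–100% and low below 60%, from lesion area relative to untreated plants 14 days after spray inoculation with S. fuliginea (1.0×10^5 cells/ml). Compound applied at 125 ppm as wettable-powder spray one day before inoculation, on 2nd-leaf-stage Sagamihanjiro cucumber.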

Compound | pest or weed control at 125 ppm [1] | pest or weed control at 125 µg/mL [2] | pest or weed control at 125 µg/mL [3]
COCOCc1ccccc1C#CCCNc1ncnc2ccccc12 [compound 148] | 60 to 100% | 60 to 100% | 60 to 100%
Cc1nc(C#CCC(C)Nc2ncnc3ccccc23)cs1 (stereo not drawn) [compound 292] | 60 to 100% | 60 to 100% | 60 to 100%
CC(CC#Cc1ccccc1OC(C)C)Nc1ncnc2sccc12 (stereo not drawn) [compound 242] | 0 to 60% | 60 to 100% | 60 to 100%
COCc1ccccc1C#CCCNc1ncnc2ccc(-c3ccc(F)cc3)cc12 [compound 336] | 0 to 60% | 60 to 100% | 0 to 60%
CC(CC#Cc1ccc(C(F)(F)F)cc1)Nc1ncnc2ccccc12 (stereo not drawn) [compound 275] | 60 to 100% | 60 to 100% | 60 to 100%
FC(F)(F)c1ccc(C#CCCNc2ncnc3ccccc23)nc1 [compound 197] | 0 to 60% | 60 to 100% | 60 to 100%
Nc1c(Cl)ncnc1NCCC#Cc1ccccc1C(F)(F)F [compound 368] | 0 to 60% | 60 to 100% | 60 to 100%
COc1ccc2cc(C#CCCNc3ncnc4ccccc34)ccc2c1 [compound 184] | 60 to 100% | 60 to 100% | 60 to 100%
Clc1ccccc1C#CCCNc1ncnc2sccc12 [compound 14] | 0 to 60% | 60 to 100% | 60 to 100%
COCc1ccccc1C#CCCNc1ncnc(Cl)c1Cl [compound 365] | 60 to 100% | 60 to 100% | 60 to 100%
C(#Cc1ccc2ncccc2c1)CCNc1ncnc2ccccc12 [compound 190] | 0 to 60% | 60 to 100% | 0 to 60%
COCc1ccc2ccccc2c1C#CCCNc1ncnc2ccccc12 [compound 185] | 0 to 60% | 60 to 100% | 0 to 60%
CC(CC#Cc1ccccc1)Nc1ncnc2sccc12 (stereo not drawn) [compound 229] | 0 to 60% | 60 to 100% | 60 to 100%
C#CCOCc1nc(C#CCCNc2ncnc3sccc23)cs1 [compound 74] | 60 to 100% | 60 to 100% | 60 to 100%
CC(CC#Cc1ccc(F)cc1C(F)(F)F)Nc1ncnc2cc(F)ccc12 (stereo not drawn) [compound 347] | 0 to 60% | 60 to 100% | 60 to 100%
COCc1ccccc1C#CCCNc1ncnc2ccc(-c3ccccc3)cc12 [compound 333] | 0 to 60% | 60 to 100% | 0 to 60%
COCc1ccc(Cl)cc1C#CCCNc1ncnc2ccccc12 [compound 143] | 60 to 100% | 60 to 100% | 60 to 100%
CN(c1ccc(C#CCCNc2ncnc3ccccc23)cc1)S(C)(=O)=O [compound 124] | 0 to 60% | 60 to 100% | 0 to 60%
COCc1ccccc1C#CCCNc1ncnc2ncccc12 [compound 380] | 60 to 100% | 60 to 100% | 60 to 100%
CC(CC#Cc1ccc(Cl)cc1C(F)(F)F)Nc1ncnc2c(C(F)(F)F)cccc12 (stereo not drawn) [compound 351] | 0 to 60% | 60 to 100% | 60 to 100%

Compound | pest or weed control at 125 ppm [1] | pest or weed control at 125 µg/mL [2] | pest or weed control at 125 µg/mL [3]
CC(CC#Cc1ccc(Cl)cc1)Nc1ncnc2ccccc12 (stereo not drawn) [compound 273] | 60 to 100% | 60 to 100% | 60 to 100%
COc1nc(C#CCCNc2ncnc3sccc23)cs1 [compound 67] | 60 to 100% | 60 to 100% | 60 to 100%
Cc1ncnc(NC(C)CC#Cc2ccc(Cl)cc2C(F)(F)F)c1Br (stereo not drawn) [compound 387] | 0 to 60% | 60 to 100% | 60 to 100%
CC(CC#Cc1nccs1)Nc1ncnc2sccc12 (stereo not drawn) [compound 265] | 60 to 100% | 60 to 100% | 60 to 100%
N#CCc1ccccc1C#CCCNc1ncnc2ccccc12 [compound 147] | 60 to 100% | 60 to 100% | 60 to 100%
C/C(C#N)=C/C#CCCNc1ncnc2ccccc12 [compound 93] | 60 to 100% | 60 to 100% | 60 to 100%
Cc1ccccc1C#CCCNc1ncnc2sccc12 [compound 17] | 60 to 100% | 60 to 100% | 60 to 100%
N#Cc1ccccc1Oc1nc(C#CCCNc2ncnc3ccccc23)cs1 [compound 221] | 0 to 60% | 60 to 100% | 60 to 100%
CS(=O)(=O)Cc1ccccc1C#CCCNc1ncnc2ccccc12 [compound 162] | 0 to 60% | 60 to 100% | 0 to 60%
COCc1ccccc1C#CCCNc1ncnc2cc(Br)ccc12 [compound 320] | 0 to 60% | 60 to 100% | 60 to 100%
CC(CC#Cc1ccc(C#N)cc1C(F)(F)F)Nc1ncnc2sccc12 (stereo not drawn) [compound 260] | 60 to 100% | 60 to 100% | 60 to 100%
COC(=O)N(OC)c1ccccc1C#CCCNc1ncnc2ccccc12 [compound 125] | 60 to 100% | 60 to 100% | 0 to 60%
COCc1ccccc1C#CCCNc1ncnc2c(F)cccc12 [compound 315] | 60 to 100% | 60 to 100% | 60 to 100%
FC(F)(F)c1ccccc1C#CCCNc1ncnc2cc3ccccc3cc12 [compound 342] | 0 to 60% | 60 to 100% | 0 to 60%
COc1ccc(C#CCCNc2ncnc3sccc23)cc1 [compound 23] | 60 to 100% | 60 to 100% | 60 to 100%
FC(F)(F)c1ccc(C#CCCNc2ncnc3ccccc23)c(Cl)c1 [compound 182] | 0 to 60% | 60 to 100% | 60 to 100%
COc1cccc2c(NC(C)CC#Cc3ccc(F)cc3C(F)(F)F)ncnc12 (stereo not drawn) [compound 353] | 0 to 60% | 60 to 100% | 60 to 100%
C(#CC1CC1)CCNc1ncnc2ccccc12 [compound 90] | 0 to 60% | 60 to 100% | 60 to 100%
Cc1ccc(C#CCCNc2ncnc3ccccc23)c(C)c1 [compound 180] | 60 to 100% | 60 to 100% | 60 to 100%
